Data taken from patent publication US20030130355A1, “Therapeutic agents” (priority 2000, published 2003).

Key:
rats = settings: cited from earlier work
[1] = tested on: conscious, telemetered rats; format: in vivo, rat
Excerpt: The methods used were similar to those described in:
Brockway, B P, Mills, P A & Azar, S H (1991) A new method for continuous chronic measurement of blood pressure, heart rate and activity in the rat via radio-telemetry. Clinical and Experimental Hypertension—Theory and Practice A13(5), 885-895 and
Guiol, C, Ledoussal, C & Surgé, J-M (1992) A radiotelemetry system for chronic measurement of blood pressure and heart rate in the unrestrained rat. Validation of method. Journal of Pharmacological and Toxicological Methods 28, 99-105.
In brief, male rats (n=10) were implanted with a telemetry device for the measurement of arterial blood pressure and heart rate. Two weeks following implantation each animal received a single oral dose of vehicle, one dose of sibutramine or a combination of sibutramine and flesinoxan in a cross-over design. Measurements of blood pressure and heart rate were taken from each rat in sequence every three minutes for nine hours following drug administration and averaged into appropriate time-bins. Statistical comparisons were by the least significant difference or multiple t-test.
In FIGS. 1 and 2, shaded circles relate to the administration of vehicle alone p.o., shaded squares relate to the administration of sibutramine at 10 mg/kg p.o. and shaded triangles relate to the administration of sibutramine at 10 mg/kg p.o. together with flesinoxan at 30 mg/kg p.o. Statistical comparisons made by the least significant difference or multiple t-test are shown as *=p<0.05 versus vehicle and t=p<0.05 versus sibutramine.

SMILES: CCCN(CCC)C1CCc2cccc(O)c2C1 (centres unmarked) [8-OH-DPAT]
- food intake (rats): increases food intake

SMILES: O=C(NCCN1CCN(c2cccc3c2OC[C@H](CO)O3)CC1)c1ccc(F)cc1 [flesinoxan]
- effect on the increase in mean arterial blood pressure induced by sibutramine ([1]; flesinoxan 30 mg/kg p.o. co-administered with sibutramine 10 mg/kg p.o., FIG. 1): completely reversed
- effect on the increase in heart rate produced by sibutramine ([1]; flesinoxan 30 mg/kg p.o. co-administered with sibutramine 10 mg/kg p.o., FIG. 2): prevented the increase in heart rate

SMILES: CC(C)CC(N(C)C)C1(c2ccc(Cl)cc2)CCC1 (centres unmarked) [sibutramine, N-{1-[1-(4-chlorophenyl)cyclobutyl]-3-methylbutyl}-N,N-dimethylamine]
- mean arterial blood pressure ([1]; sibutramine 10 mg/kg p.o. alone, versus vehicle, conscious telemetered male rats, nine hours, FIG. 1): significant increase
- heart rate ([1]; sibutramine 10 mg/kg p.o. alone, conscious telemetered rats, FIG. 2): increase in heart rate
